Columns and labels:
Format in all cases: in vivo
[1] = system: Kochia (Kochia scoparia); test: Test A preemergence; details: Bassia scoparia, pre-emergence, 240 h, 0 to 100 scale where 0 is no effect and 100 is complete control, read-out: Kochia plant response rating
Summary of the method: (§1)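 Seeds sprayed preemergence with a directed soil spray, or plants at 2 to 10 cm height and one- to two-leaf stage sprayed postemergence, with test chemicals in a non-phytotoxic solvent mixture containing surfactant, in loam soil–sand blend. Injury rated visually against untreated controls after about 10 d in greenhouse, 0 (no effect) to 100 (complete control).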

[2] = system: barnyardgrass (Echinochloa crus-galli); test: Test A preemergence; details: Echinochloa crus-galli, pre-emergence, 240 h, 0 to 100 scale where 0 is no effect and 100 is complete control, read-out: Barnyardgrass plant response rating
Summary of the method: as §1

[3] = system: giant foxtail (Setaria faberii); test: Test A preemergence; details: Setaria faberi, pre-emergence, 240 h, 0 to 100 scale where 0 is no effect and 100 is complete control, read-out: Foxtail, Giant plant response rating
Summary of the method: as §1

[4] = system: pigweed (Amaranthus retroflexus); test: Test A preemergence; details: Amaranthus retroflexus, pre-emergence, 240 h, 0 to 100 scale where 0 is no effect and 100 is complete control, read-out: Pigweed plant response rating
[5] = system: ragweed (common ragweed, Ambrosia elatior); test: Test A preemergence; details: Ambrosia artemisiifolia, pre-emergence, 240 h, 0 to 100 scale where 0 is no effect and 100 is complete control, read-out: Ragweed plant response rating
Summary of the method: as §1

[6] = system: ryegrass, Italian (Italian ryegrass, Lolium multiflorum); test: Test A preemergence; details: Lolium multiflorum, pre-emergence, 240 h, 0 to 100 scale where 0 is no effect and 100 is complete control, read-out: Ryegrass, Italian plant response rating
Summary of the method: as §1

[7] = system: Galium (catchweed bedstraw, Galium aparine); test: Test A postemergence; details: Galium, post-emergence, 240 h
Summary of the method: as §1

[8] = system: Kochia (Kochia scoparia); test: Test A postemergence; details: Bassia scoparia, post-emergence, 240 h
Summary of the method: as §1

[9] = system: barnyardgrass (Echinochloa crus-galli); test: Test A postemergence; details: Echinochloa crus-galli, post-emergence, 240 h
Summary of the method: as §1

[10] = system: blackgrass (Alopecurus myosuroides); test: Test A postemergence; details: Alopecurus myosuroides, post-emergence, 240 h
Summary of the method: as §1

[11] = system: corn (Zea mays); test: Test A postemergence; details: Zea mays, post-emergence, 240 h
Summary of the method: as §1

[12] = system: giant foxtail (Setaria faberii); test: Test A postemergence; details: Setaria faberi, post-emergence, 240 h
Summary of the method: as §1

[13] = system: pigweed (Amaranthus retroflexus); test: Test A postemergence; details: Amaranthus retroflexus, post-emergence, 240 h
Summary of the method: as §1

[14] = system: ragweed (common ragweed, Ambrosia elatior); test: Test A postemergence; details: Ambrosia artemisiifolia, post-emergence, 240 h
Summary of the method: as §1

[15] = system: ryegrass, Italian (Italian ryegrass, Lolium multiflorum); test: Test A postemergence; details: Lolium multiflorum, post-emergence, 240 h
Summary of the method: as §1

[16] = system: wheat (Triticum aestivum); test: Test A postemergence; details: Triticum aestivum, post-emergence, 240 h
Summary of the method: as §1

[17] = system: barnyardgrass (Echinochloa crus-galli); test: Test B flooded paddy test; details: Echinochloa crus-galli, 250 g ai/ha, Flood; 0 to 100 scale where 0 is no effect and 100 is complete control; read-out: Barnyardgrass plant response rating
Summary of the method: (§2)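 Flooding to 3 cm over soil accompanied treatment, which consisted of adding compound to the standing water around 2-leaf plants; depth was then maintained. Visual assessment versus controls followed at 13 to 15 d (scale 0–100, 0 meaning no effect).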

[18] = system: ducksalad (Heteranthera limosa); test: Test B flooded paddy test; details: Heteranthera limosa, 250 g ai/ha, Flood; 0 to 100 scale where 0 is no effect and 100 is complete control; read-out: Ducksalad plant response rating
Summary of the method: as §2

[19] = system: rice (Oryra sativa); test: Test B flooded paddy test; details: Oryza sativa, 250 g ai/ha, Flood; 0 to 100 scale where 0 is no effect and 100 is complete control; read-out: Rice plant response rating
Summary of the method: as §2

[20] = system: sedge, umbrella (small-flower umbrella sedge, Cyperus difformis); test: Test B flooded paddy test; details: Cyperus difformis, 250 g ai/ha, Flood; 0 to 100 scale where 0 is no effect and 100 is complete control; read-out: Sedge, Umbrella plant response rating
Summary of the method: as §2

[21] = 125 g ai/ha, preemergence, approx. 10 d

CC(O)c1ccccc1NC(=O)C1C(=O)N(C)CC1c1cccc(C(F)(F)F)c1 (stereo not drawn) [Compound 1147]
20%: pest or weed control at 125 g/ha [2, 21] | pest or weed control at 125 g/ha [3, 21]
0%: pest or weed control at 31 g/ha ([1]; 31 g ai/ha, Preemergence) | pest or weed control at 125 g/ha [1, 21] | pest or weed control at 31 g/ha ([2]; 31 g ai/ha, Preemergence) | pest or weed control at 31 g/ha ([3]; 31 g ai/ha, Preemergence) | pest or weed control at 31 g/ha ([4]; 31 g ai/ha, Preemergence) | pest or weed control at 125 g/ha [4, 21] | pest or weed control at 31 g/ha ([5]; 31 g ai/ha, Preemergence) | pest or weed control at 125 g/ha [5, 21] | pest or weed control at 31 g/ha ([6]; 31 g ai/ha, Preemergence) | pest or weed control at 125 g/ha [6, 21] | pest or weed control at 125 g/ha ([7]; 125 g ai/ha, postemergence, visual injury on 0 to 100 scale (0 no effect, 100 complete control), approx. 10 d, read-out: Galium plant response rating) | pest or weed control at 31 g/ha ([7]; Postemergence, 31 g ai/ha, visual injury after approx. 10 d, 0 to 100 scale, 0 no effect, 100 complete control, read-out: Plant response rating, Galium) | pest or weed control at 125 g/ha ([8]; 125 g ai/ha, postemergence, visual injury on 0 to 100 scale (0 no effect, 100 complete control), approx. 10 d, read-out: Kochia plant response rating) | pest or weed control at 31 g/ha ([8]; Postemergence, 31 g ai/ha, visual injury after approx. 10 d, 0 to 100 scale, 0 no effect, 100 complete control, read-out: Plant response rating, Kochia) | pest or weed control at 125 g/ha ([9]; 125 g ai/ha, postemergence, visual injury on 0 to 100 scale (0 no effect, 100 complete control), approx. 10 d, read-out: Barnyardgrass plant response rating) | pest or weed control at 31 g/ha ([9]; Postemergence, 31 g ai/ha, visual injury after approx. 10 d, 0 to 100 scale, 0 no effect, 100 complete control, read-out: Plant response rating, Barnyardgrass) | pest or weed control at 125 g/ha ([10]; 125 g ai/ha, postemergence, visual injury on 0 to 100 scale (0 no effect, 100 complete control), approx. 10 d, read-out: Blackgrass plant response rating) | pest or weed control at 31 g/ha ([10]; Postemergence, 31 g ai/ha, visual injury after approx. 10 d, 0 to 100 scale, 0 no effect, 100 complete control, read-out: Plant response rating, Blackgrass) | plant injury at 125 g/ha ([11]; 125 g ai/ha, postemergence, visual injury on 0 to 100 scale (0 no effect, 100 complete control), approx. 10 d, read-out: Corn plant response rating) | Corn plant response rating (crop injury, 0 = no effect, 100 = complete kill) at 31 g/ha ([11]; Postemergence, 31 g ai/ha, visual injury after approx. 10 d, 0 to 100 scale, 0 no effect, 100 complete control) | pest or weed control at 125 g/ha ([12]; 125 g ai/ha, postemergence, visual injury on 0 to 100 scale (0 no effect, 100 complete control), approx. 10 d, read-out: Foxtail, Giant plant response rating) | pest or weed control at 31 g/ha ([12]; Postemergence, 31 g ai/ha, visual injury after approx. 10 d, 0 to 100 scale, 0 no effect, 100 complete control, read-out: Plant response rating, Foxtail, Giant) | pest or weed control at 125 g/ha ([13]; 125 g ai/ha, postemergence, visual injury vs untreated controls after approx. 10 d, 0 = no effect, 100 = complete control, read-out: Pigweed plant response rating (0 to 100 scale)) | pest or weed control at 31 g/ha ([13]; Postemergence, 31 g ai/ha, visual injury after approx. 10 d, 0 to 100 scale, 0 no effect, 100 complete control, read-out: Plant response rating, Pigweed) | pest or weed control at 125 g/ha ([14]; 125 g ai/ha, postemergence, visual injury vs untreated controls after approx. 10 d, 0 = no effect, 100 = complete control, read-out: Ragweed plant response rating (0 to 100 scale)) | pest or weed control at 31 g/ha ([14]; Postemergence, 31 g ai/ha, visual injury after approx. 10 d, 0 to 100 scale, 0 no effect, 100 complete control, read-out: Plant response rating, Ragweed) | pest or weed control at 125 g/ha ([15]; 125 g ai/ha, postemergence, visual injury vs untreated controls after approx. 10 d, 0 = no effect, 100 = complete control, read-out: Ryegrass, Italian plant response rating (0 to 100 scale)) | pest or weed control at 31 g/ha ([15]; Postemergence, 31 g ai/ha, visual injury after approx. 10 d, 0 to 100 scale, 0 no effect, 100 complete control, read-out: Plant response rating, Ryegrass, Italian) | plant injury at 125 g/ha ([16]; 125 g ai/ha, postemergence, visual injury vs untreated controls after approx. 10 d, 0 = no effect, 100 = complete control, read-out: Wheat plant response rating (0 to 100 scale)) | plant injury at 31 g/ha ([16]; Postemergence, 31 g ai/ha, visual injury after approx. 10 d, 0 to 100 scale, 0 no effect, 100 complete control, read-out: Plant response rating, Wheat) | pest or weed control at 250 g/ha [17] | pest or weed control at 250 g/ha [18] | pest or weed control at 250 g/ha [20]
15%: pest or weed control at 250 g/ha [19]
